Assay results as given in publication PMC12337342 (Proceedings of the National Academy of Sciences of the …, 2025).

What follows are compounds tested against T1, AUX1 (Arabidopsis thaliana, UniProt Q96247) (assay: inhibition of [3H]IAA uptake in AUX1-expressing HEK293T cells). Conditions: about 30 nM [3H]IAA, pH 6.0, 37 °C, 10 min.
T1 sequence (Q96247 1-485): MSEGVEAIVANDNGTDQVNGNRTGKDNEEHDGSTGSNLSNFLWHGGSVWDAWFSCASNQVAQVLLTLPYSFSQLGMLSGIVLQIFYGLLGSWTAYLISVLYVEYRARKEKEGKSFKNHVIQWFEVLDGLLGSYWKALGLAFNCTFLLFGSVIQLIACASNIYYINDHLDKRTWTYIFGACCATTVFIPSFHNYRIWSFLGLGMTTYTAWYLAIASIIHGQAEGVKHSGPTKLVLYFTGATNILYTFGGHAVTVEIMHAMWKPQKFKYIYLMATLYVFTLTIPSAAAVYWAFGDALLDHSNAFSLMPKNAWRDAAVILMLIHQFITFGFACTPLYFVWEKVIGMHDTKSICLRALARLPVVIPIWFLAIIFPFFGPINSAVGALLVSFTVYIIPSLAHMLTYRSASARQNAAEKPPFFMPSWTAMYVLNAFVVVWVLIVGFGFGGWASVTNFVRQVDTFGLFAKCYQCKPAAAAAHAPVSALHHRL
Assay type: cell-based
`O=C(O)COc1cccc2ccccc12` [1-NOA, 1-naphthoxyacetic acid] was tested, and the “% relative auxin accumulation at 50 μM inhibitor” value was “reduced the uptake of [^3H]IAA in AUX1-expressing HEK293T cells”. With `O=C(O)COc1ccc2ccccc2c1` [2-NOA, 2-naphthoxyacetic acid] the “% relative auxin accumulation at 50 μM inhibitor” value was “reduced the uptake of [^3H]IAA in AUX1-expressing HEK293T cells”. For `O=C(O)Cc1ccc(O)c(Cl)c1` [CHPAA, 3-chloro-4-hydroxyphenylacetic acid], the “% relative auxin accumulation at 50 μM inhibitor” value was “reduced the uptake of [^3H]IAA in AUX1-expressing HEK293T cells”.
